What was measured:
[1] = test system: bulk protein turnover in HCT116 cells; experiment: Bulk protein turnover assay; assay type: cell-based
MDA-MB-231 cells = experiment: ATPlite cell viability assay, MDA-MB-231; assay type: cell-based; conditions: Homo sapiens, MDA-MB-231, 72 h, read-out: Cell viability MDA-MB-231 LC50
[2] = target: human erythrocyte 20S β5 site (Homo sapiens, UniProt P20618+P28074); experiment: Kinetic analysis of purified 20S inhibition; assay type: biochemical
Cathepsin L = Cathepsin L (Homo sapiens, UniProt P07711); experiment: Protease selectivity assay, cathepsin L; assay type: biochemical
Chain of Cathepsin L (P07711 114-333): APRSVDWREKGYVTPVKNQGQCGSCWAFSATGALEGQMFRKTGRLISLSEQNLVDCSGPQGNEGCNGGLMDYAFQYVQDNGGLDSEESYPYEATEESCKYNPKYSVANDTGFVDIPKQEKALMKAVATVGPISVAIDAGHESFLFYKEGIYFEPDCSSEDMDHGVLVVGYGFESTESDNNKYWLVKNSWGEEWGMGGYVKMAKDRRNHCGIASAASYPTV

[3] = target: human peripheral blood monocyte 20S β2i site, immunoproteasome (Homo sapiens, UniProt P40306+P49720); experiment: Purified human 20S-PA28 peptidase assay, β2i site; assay type: biochemical
[4] = target: human peripheral blood monocyte 20S β1i site, immunoproteasome (Homo sapiens, UniProt P28065+P40306); experiment: Purified human 20S-PA28 peptidase assay, β1i site; assay type: biochemical
[5] = target: Coagulation Factor β-XIIa (Homo sapiens, UniProt P00748); experiment: Protease selectivity assay, coagulation Factor β-XIIa; assay type: biochemical
Chain of Coagulation Factor β-XIIa (P00748 373-615 limits assumed, other chains not shown): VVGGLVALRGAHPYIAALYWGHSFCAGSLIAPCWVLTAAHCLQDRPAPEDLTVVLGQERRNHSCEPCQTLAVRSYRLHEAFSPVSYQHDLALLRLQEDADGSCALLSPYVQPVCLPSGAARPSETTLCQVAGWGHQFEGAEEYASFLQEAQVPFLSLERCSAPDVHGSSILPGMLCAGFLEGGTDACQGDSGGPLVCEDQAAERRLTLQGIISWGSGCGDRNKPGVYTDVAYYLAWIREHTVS

[6] = target: human erythrocyte 20S β1c (caspase-like) site, constitutive proteasome (Homo sapiens, UniProt P28072+Q99436); experiment: Purified human 20S-PA28 peptidase assay, β1c site; assay type: biochemical
[7] = target: human erythrocyte 20S β2c (trypsin-like) site, constitutive proteasome (Homo sapiens, UniProt P49720+Q99436); experiment: Purified human 20S-PA28 peptidase assay, β2c site; assay type: biochemical
Thrombin = Thrombin (Homo sapiens, UniProt P00734); experiment: Protease selectivity assay, thrombin; assay type: biochemical
Trypsin = experiment: Protease selectivity assay, trypsin; assay type: biochemical, human
[8] = test system: MDA-MB-231, Calu6, H460, HCT116 and HT29 cells; experiment: ATPlite cell viability assays across cancer cell lines; assay type: cell-based; conditions: 72 h, read-out: LC50 values across a panel of five cancer cell lines
[9] = target: Tissue plasminogen activator (Homo sapiens, UniProt P00750); experiment: Protease selectivity assay, tissue plasminogen activator; assay type: biochemical
Chain of Tissue plasminogen activator (P00750 36-562): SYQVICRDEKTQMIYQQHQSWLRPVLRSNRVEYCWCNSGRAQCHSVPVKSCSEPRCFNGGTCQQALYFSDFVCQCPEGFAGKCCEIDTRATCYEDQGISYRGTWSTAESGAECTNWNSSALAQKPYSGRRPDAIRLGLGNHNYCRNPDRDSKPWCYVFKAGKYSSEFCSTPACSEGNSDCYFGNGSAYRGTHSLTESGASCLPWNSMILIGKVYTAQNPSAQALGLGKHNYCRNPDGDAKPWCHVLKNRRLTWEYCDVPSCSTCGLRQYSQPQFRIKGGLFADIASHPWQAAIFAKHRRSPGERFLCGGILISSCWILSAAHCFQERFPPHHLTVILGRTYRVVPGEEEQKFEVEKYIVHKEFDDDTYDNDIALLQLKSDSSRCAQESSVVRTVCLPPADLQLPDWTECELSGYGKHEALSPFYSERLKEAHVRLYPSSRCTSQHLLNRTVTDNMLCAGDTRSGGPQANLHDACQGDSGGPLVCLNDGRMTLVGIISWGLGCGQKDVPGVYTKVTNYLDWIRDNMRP

[10] = test system: 4xUb-Luc reporter in MDA-MB-231 cells; experiment: 4xUb-Luc reporter accumulation assay; assay type: cell-based; conditions: for MDA231 4xUb-Luc Maximal induction: 8 h with compound, over DMSO control
[11] = target: human peripheral blood monocyte 20S β5i site, immunoproteasome (Homo sapiens, UniProt P20618+P28062); experiment: Purified human 20S-PA28 peptidase assay, β5i site; assay type: biochemical
[12] = test system: β5 site of the proteasome; conditions: cited from earlier work

SMILES | inhibition of bulk protein turnover ([1]; HCT116 cells, 3 μM compound) | CC50 (MDA-MB-231 cells) | Ki [2] | Enzyme inhibition at 100 μM compound, Cathepsin L (Cathepsin L) | IC50 [3] | IC50 [4] | Enzyme inhibition at 100 μM compound, Coagulation Factor β-XIIa [5] | IC50 [6] | IC50 [7] | Enzyme inhibition at 100 μM compound, Thrombin (Thrombin) | Enzyme inhibition at 100 μM compound, Trypsin (Trypsin) | CC50 [8] | Enzyme inhibition at 100 μM compound, Tissue plasminogen activator [9] | accumulation of the 4xUb-Luc reporter, up to ([10]; 8 h, highest effect observed) | MDA231 4xUb-Luc Maximal induction [10] | IC50 [11] | t½ for dissociation from the β5 site [12] | inhibition at 3 µM ([1]; Homo sapiens, HCT-116, read-out: inhibition of bulk protein turnover)
C[C@@]12OC(=O)[C@]1([C@@H](O)[C@@H]1C=CCCC1)NC(=O)[C@@H]2CCCl [ML858] | comparable | – | – | – | – | – | – | – | – | – | – | – | – | – | – | – | – | –
Cc1ccc(CNC(=O)[C@H](CCc2ccccc2)NC(=O)[C@H](CCc2ccccc2)NC(=O)[C@H](CCc2ccccc2)NC(=O)c2cnc(C)cn2)cc1 [Compound 1, 5-methyl-N-((S)-1-((S)-1-((S)-1-(4-methylbenzylamino)-1-oxo-4-phenylbutan-2-ylamino)-1-oxo-4-phenylbutan-2-ylamino)-1-oxo-4-phenylbutan-2-yl)pyrazine-2-carboxamide] | – | 150 ± 23 nM | 0.5 ± 0.12 nM | < 50% | > 100000 nM | > 100000 nM | < 50% | 28000 nM | 57000 nM | < 50% | < 50% | 50 to 380 nM | < 50% | approx. 100 fold | 52±16 fold | 8.9 nM | – | –
CC(C)C[C@H](NC(=O)[C@H](Cc1ccccc1)NC(=O)c1cnccn1)B(O)O [Bortezomib] | – | – | – | – | – | – | – | – | – | – | – | – | – | – | 340±12 fold | – | ~ 110 min | ~50%
